# Source: patent publication US8552052B2, “Use of diindolylmethane-related indoles for the treatment and prevention of respiratory syncytial virus associated conditions” (BioResponse, L.L.C., priority 2004, dated 2013)
# “Also recorded” adds a separate entry of the source.
# What was measured:
# RSV Long strain = assay: Respiratory rate in RSV infected BALB/c mice; format: in vivo; conditions: oral, SC low dose and SC high dose DIM; 6 and 10 days pi; vs RSV-infected, untreated control mice; FIG. 6
# Experimental: (§1) The Following Experimental BALB/c Groups and Treatment Protocol Using DIM were Studied: • 1. RSV infected positive control group, infected with RSV and injected subcutaneously (SC) once daily with DMSO/Phosphate Buffered Saline (PBS) vehicle. • 2. RSV infected, Low dose Parenteral DIM group (15 mg/kg/day), injected SC once daily with DIM suspension • 3. RSV infected, High dose DIM Group (150 mg/kg/day), injected SC once daily with DIM suspension • 4. RSV infected, orally treated DIM group (250 mg/kg/day from absorption enhanced DIM [Example 6.1]), added to powdered feed • 5. Uninfected negative control group, nasally administered vehicle only, and injected subcutaneously (SC) once daily with DMSO/PBS vehicle
# Mouse treatment, infection and harvest. Intranasal application of RSV in BALB/c mice followed an established procedure (Bitko et al., 2005, Nat Med. 11(1):50-5) and causes predictable pulmonary disease and inflammation. For RSV infection, RSV stock was diluted such that each mouse was given 10^7 pfu (plaque forming unit) of the virus intranasally. […]
# Pulmonary viral assay and clinical measurements. […] Respiratory rates (breaths per min) were determined by counting over a period of 2-3 mins. […]
# RSV infected A549 cells = assay: TUNEL assay for visualization of apoptosis in RSV infected A549 cells; format: cell-based, human; conditions: DIM at 210 and 700 nM; 12, 18, and 24 hours post infection; data not shown
# Experimental: Cell Culture—A549 cells, a tumor cell line with properties of normal airway epithelial cells, were obtained from American Type Culture Collection (ATCC, Manassas, Va.) and incubated at 37° C. in 5% CO2. The cells were cultured in Eagle's minimum essential medium (MEM, Invitrogen) supplemented with 10% fetal bovine serum (HyClone, Logan, Utah) and […] gentamicin. The A549 cells were subcultured by harvesting in 0.12% trypsin no more than 20 times from stock originally designated at pass 70. To minimize effects of exogenous growth factors or cytokines in this system, the supplemented serum concentration was reduced to 0.5% 24 h prior to and during all experiments with RSV infection.
# RSV Virus—RSV, strain A2, was obtained from Advanced Biotechnologies Inc. (Columbia, Md.) and was used directly as supplied for all experiments. The viral preparation was tested to have a TCID50 titer of ˜1×10^9 in Hep-2 cells at 7 days. Sterile vials of the RSV preparation were supplied in MEM supplemented with 10% fetal calf serum, stored at −135° C. and rapidly thawed at 37° C. immediately prior to use. […]
# Apotosis in RSV infected A549 cells cultured with and without DIM was further studied using the TUNEL assay for visualization of apoptosis. […] To remove unincorporated dUTP, slides were washed three times 15 min each with 2×SSC and three times with PBS, and then viewed in a fluorescence microscope. […]
# cysteinyl leukotrienes = assay: Cysteinyl leukotrienes ELISA in bronchoalveolar lavage fluid (BALF) of RSV infected BALB/c mice; format: in vivo; conditions: oral, SC low dose and SC high dose DIM; 6 and 10 days pi; vs RSV-infected, untreated mice; FIG. 7
# Experimental: as §1
# Mouse treatment, infection and harvest. […]
# To determine viral titer, the lung was homogenized in DMEM supplemented with 2% FBS (2 ml DMEM per 100 mg tissue) in cold. […] Multiple, 4 μm thick sections were stained with haematoxylin & eosin (H&E) and scored for cellular inflammation under light microscopy by two independent researchers. Inflammatory infiltrates were scored by enumerating the layers of inflammatory cells surrounding the vessels and bronchioles. […] A total of about 20 spaces per lung were counted for each animal. […] The concentration of cysteinyl leukotrienes conjugates in the BALF was determined by an ELISA kit following the manufacturer's protocol (R&D Systems, Minneapolis, Minn.). […]
smiles,measurement,setting,value
"c1ccc2c(Cc3c[nH]c4ccccc34)c[nH]c2c1 [DIM, 3,3′-diindolylmethane]",respiratory rate,RSV Long strain,normalized respiratory rate; also recorded: lower respiratory rate
same,apoptosis in TUNEL stained photomicrographs,RSV infected A549 cells,clearly showed earlier apoptosis
same,leukotrienes in broncho-alveolar lung fluid (BALF),cysteinyl leukotrienes,significant reduction in leukotriene levels; also recorded: Reduction in pulmonary leukotriene levels; also recorded: significantly lower levels of lung inflammation associated leukotrienes
